Experimental data published in paper PMC9791066, “Investigations into the antibacterial effects and potential mechanism of gambogic acid and neogambogic acid” (Frontiers in Microbiology, 2022).
Values after ≈ are worked out from the molar mass of the structure shown. Like-named read-outs stand apart in the source and are kept apart here.

Legend:
[1] = target: T1, Enterococcus faecalis UPPS (EfaUPPS), wild-type (Enterococcus faecalis, UniProt Q831K9); test: UPPS inhibition assay (enzyme-coupled fluorescence), wild-type EfaUPPS; format: biochemical
T1 construct: His tag; made in house; host or cells: E. coli BL21(DE3)
T1 sequence (Q831K9 whole entry): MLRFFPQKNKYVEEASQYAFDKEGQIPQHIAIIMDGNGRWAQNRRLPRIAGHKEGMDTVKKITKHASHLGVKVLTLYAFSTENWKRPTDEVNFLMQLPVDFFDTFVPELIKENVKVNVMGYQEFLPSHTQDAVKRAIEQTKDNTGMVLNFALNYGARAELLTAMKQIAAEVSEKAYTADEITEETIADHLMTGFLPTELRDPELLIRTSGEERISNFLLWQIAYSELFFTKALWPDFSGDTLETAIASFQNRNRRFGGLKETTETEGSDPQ
Protocol: Enterococcus faecalis undecaprenyl pyrophosphate synthase (EfaUPPS) recombination studies were performed as previously described ([Li et al., 2020]). Briefly, the full-length gene sequence of EfaUPPS was cloned into the NdeI and HindIII sites of pET28a vector under control of T7 promoter. The sequenced plasmid was then transformed into E. coli strain BL21(DE3) (Invitrogen) and the transformants were grown on LB broth media supplemented with 50 μg/mL kanamycin. A single colony of the transformant was then cultured in 100 mL of LB broth containing 50 μg/mL kanamycin overnight. The overnight cultures were inoculated into 1 L of LB broth containing 50 μg/mL kanamycin and continue to culture until reaching an OD600 of 0.8. Upon reaching the optimal growth states, the cultures were induced by addition of 1 mM isopropyl-β-D-thiogalactoside (IPTG), and then cultured at 16°C for 16 h. […]
The UPPS inhibition assay was carried out by measuring the fluorescence of the reaction mixture in a black 96-well microtiter plate (Corning, United States). […] The UPPS inhibitory activity was performed by calculating the fluorescence percentage through determining the fluorescence absorbance of reaction mixture at 316 and 456 nm. […]

[2] = target: T2, EfaUPPS (R42A) (Enterococcus faecalis, UniProt Q831K9, R48A); test: UPPS inhibition assay, EfaUPPS R42A mutant; format: biochemical; settings: for effect of mutation on inhibitory effect of compound on EfaUPPS enzyme activity: R42A mutant compared with wild-type
T2 construct: His tag; made in house; host or cells: E. coli BL21(DE3)
T2 sequence (Q831K9 whole entry R48A): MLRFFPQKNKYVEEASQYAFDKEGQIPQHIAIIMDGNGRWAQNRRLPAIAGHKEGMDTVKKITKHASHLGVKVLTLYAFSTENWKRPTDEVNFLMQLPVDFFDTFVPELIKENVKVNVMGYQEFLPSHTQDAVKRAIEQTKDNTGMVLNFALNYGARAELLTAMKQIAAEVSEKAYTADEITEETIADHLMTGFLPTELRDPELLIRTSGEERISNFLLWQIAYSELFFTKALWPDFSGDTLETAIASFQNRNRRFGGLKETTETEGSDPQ
Protocol: (§1) The EfaUPPS site-directed mutagenesis was generated using QuikChange site-directed mutagenesis kit (Agilent) according to the manufacturer’s instructions. The purification of site-directed mutation was using a similar strategy as described above.
(§2) The UPPS inhibition assay was carried out by measuring the fluorescence of the reaction mixture in a black 96-well microtiter plate (Corning, United States). […] After the indicated incubation period, the reaction was terminated by the addition of 10 μl of 0.5 M EDTA solution. Transferred 50 μl of the reaction mixture into a new 96-well microtiter plate, and quenched with an equal volume of Master Reaction Mix (Pyrophosphate Assay Kit, Sigma-Aldrich, USA) for 30 min. The UPPS inhibitory activity was performed by calculating the fluorescence percentage through determining the fluorescence absorbance of reaction mixture at 316 and 456 nm. Data of UPPS inhibitory activities were plotted versus compound concentrations on a semi-log scale using GraphPad Prism7. All the results were the means of at least three biological replicates.

[3] = target: T3, EfaUPPS (L146A) (Enterococcus faecalis, UniProt Q831K9, L152A); test: UPPS inhibition assay, EfaUPPS L146A mutant; format: biochemical; settings: for effect of mutation on inhibitory effect of compound on EfaUPPS enzyme activity: L146A mutant compared with wild-type; for IC50 fold higher than that of the wild-type: L146A mutant vs wild-type (~3 μM)
T3 construct: His tag; made in house; host or cells: E. coli BL21(DE3)
T3 sequence (Q831K9 whole entry L152A): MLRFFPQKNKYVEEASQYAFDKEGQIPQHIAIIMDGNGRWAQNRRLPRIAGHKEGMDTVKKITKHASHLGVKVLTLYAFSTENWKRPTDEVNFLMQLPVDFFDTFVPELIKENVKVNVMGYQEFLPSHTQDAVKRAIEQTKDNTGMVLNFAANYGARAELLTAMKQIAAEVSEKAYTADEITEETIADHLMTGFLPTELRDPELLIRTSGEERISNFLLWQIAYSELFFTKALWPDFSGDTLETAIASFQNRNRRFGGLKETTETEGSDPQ
Protocol: as §1, §2

[4] = target: T4, WT EfaUPPS (Enterococcus faecalis, UniProt Q831K9); test: Microscale thermophoresis binding assay, wild-type EfaUPPS
T4 construct: His tag; made in house; host or cells: E. coli BL21(DE3)
T4 sequence (Q831K9 whole entry): as the sequence (Q831K9 whole entry) above
Protocol: (§3) To characterize the binding affinity between EfaUPPS and GA or NGA, the MST binding assay was performed as previously described ([Lin et al., 2020]). In brief, His-tagged EfaUPPS and site-directed mutated EfaUPPS were labeled with the NT- 647-NHS dye using the Monolith NTTM Protein Labeling Kit RED-NHS (NanoTemper Technologies). Two-fold serially diluted GA or NGA was mixed with 10 nM of labeled EfaUPPS or its derivatives in 10 μl of binding buffer (137 mM NaCl, 2.7 mM KCl, 10 mM Na2HPO4, 1.8 mM KH2PO4, and 0.05% Tween-20, pH 7.8), incubated for 15 min, at room temperature. And then, loaded the mixtures into NT.115 premium coated capillaries (NanoTemper Technologies). MST trace signals were collected from the IR laser on to off for about 20 s, under the 5% LED power and high MST power mode. The change of molecular thermophoresis was monitored by standardized fluorescence value Fnorm, and the binding curve was plotted according to the values of Fnorm. The formed complex affinity was analyzed by MO Affinity Analysis software version 2.3. Apparent dissociation constants (Kd) were calculated using nonlinear fitting assuming one specific binding site with the GraphPad Prism 7 software with the following formula: Y = B^∗Max X/KD + X.
(§4) (^∗ where BMax is the maximum theoretical specific binding; here BMax = 1).

[5] = target: T5, EfaUPPS (L91A) (Enterococcus faecalis, UniProt Q831K9, L97A); test: Microscale thermophoresis binding assay, EfaUPPS L91A; settings: MST, no binding
T5 construct: His tag; made in house; host or cells: E. coli BL21(DE3)
T5 sequence (Q831K9 whole entry L97A): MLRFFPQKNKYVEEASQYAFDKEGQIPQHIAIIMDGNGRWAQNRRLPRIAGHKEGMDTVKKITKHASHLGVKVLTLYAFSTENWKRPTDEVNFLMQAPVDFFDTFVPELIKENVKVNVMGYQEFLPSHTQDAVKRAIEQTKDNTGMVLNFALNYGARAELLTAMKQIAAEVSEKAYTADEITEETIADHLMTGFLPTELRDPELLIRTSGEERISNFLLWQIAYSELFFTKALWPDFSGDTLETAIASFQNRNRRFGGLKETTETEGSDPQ
Protocol: as §3, §4

[6] = target: T3, EfaUPPS (L146A); test: Microscale thermophoresis binding assay, EfaUPPS L146A; settings: MST, no binding
Protocol: as §3, §4

[7] = test system: MRSA; test: MIC, microtiter broth dilution; format: cell-based, Staphylococcus aureus; settings: Staphylococcus aureus, MRSA, 18 h
Protocol: (§5) Antibacterial activities were performed by examining the minimal inhibitory concentrations (MICs), which was determined by a microtiter broth dilution method as previously described ([Cotsonas King and Wu, 2009]), with minor modifications. Briefly, 96-well plates (Corning) were inoculated with 100 μl of LB broth per well containing 7 × 10^5 CFU/mL bacteria, followed by adding 100 μl of LB broth containing two-fold serial dilutions of the test compounds. […] After 18 h of incubation, the MIC was determined to be the lowest concentration without visible bacterial growth. The results were the averages of at least three biological replicates.

[8] = test system: Escherichia coli BAS 849; test: microbe, parasite or virus in culture; format: cell-based; settings: Escherichia coli
Protocol: as §5

[9] = test system: Escherichia coli BL21 (DE3); test: microbe, parasite or virus in culture; format: cell-based; settings: Escherichia coli, 18 h
Protocol: as §5

[10] = test system: Escherichia coli DH5α; test: microbe, parasite or virus in culture; format: cell-based; settings: Escherichia coli, 18 h
Protocol: as §5

[11] = target: T6, EfaUPPS (Enterococcus faecalis, UniProt Q831K9); test: Compound/substrate-UPPS binding competition experiment; format: biochemical; settings: 0-20 μM FPP, 1/2/5 μM compound
T6 construct: His tag; made in house; host or cells: E. coli BL21(DE3)
T6 sequence (Q831K9 whole entry): as the sequence (Q831K9 whole entry) above
Protocol: The compound/substrate-UPPS binding competition experiment was performed as the above descriptions. The difference is that the reaction buffer containing 35 μM IPP, different concentrations of FPP ranged from 0–20 μM, and in the presence of 0/1/2/5 μM GA/NGA, respectively. Data were plotted with competitive inhibition model using GraphPad Prism7.

Row | SMILES | effect of mutation on inhibitory effect of compound on EfaUPPS enzyme activity [2] | IC50 [3] [µM] | effect of mutation on inhibitory effect of compound on EfaUPPS enzyme activity [3] | IC50 fold higher than that of the wild-type [3] | Kd [5] [µM] | Kd [6] [µM] | competition with FPP for binding to EfaUPPS [11] | other results
1 | CC(C)=CCC[C@]1(C)C=Cc2c(O)c3c(c(CC=C(C)C)c2O1)O[C@]12C(=C[C@@H]4C[C@H]1C(C)(C)O[C@@]2(C/C=C(/C)C(=O)O)C4=O)C3=O [GA, gambogic acid] | does not have significant impact | ~30 | significantly decreased | about 10 fold | > 50000 | > 50000 | compete with FPP | IC50 ([1]; WT EfaUPPS, 35 μM IPP, 5 μM FPP, read-out: IC50): 3.08 µM; IC50 [2]: 5.39 µM; Kd ([4]; MST, WT EfaUPPS, read-out: Kd): 29 ± 8.03 µM; MIC ([7]; LB broth, read-out: MIC): 4 µg/mL (≈ 6.36 µM); MIC ([8]; BAS849, LB broth, 18 h, strain with deficient outer-membrane structure, read-out: MIC): 8 µg/mL (≈ 12.7 µM); MIC ([9]; LB broth, read-out: MIC): > 64 µg/mL; MIC ([10]; LB broth, read-out: MIC): > 64 µg/mL
2 | CC(C)=CCC[C@]1(C)CC(O)c2c(O)c3c(c(CC=C(C)C)c2O1)O[C@]12C(=C[C@@H]4C[C@H]1C(C)(C)O[C@@]2(C/C=C(/C)C(=O)O)C4=O)C3=O (stereo partly shown) [NGA, neogambogic acid] | significantly reduced | ~30 | significantly reduced | about 10 fold | > 50000 | > 50000 | compete with FPP | IC50 [1]: 3.07 µM; Kd [4]: 5.61 ± 2.16 µM; Kd fold lower than that for GA ([4]; WT EfaUPPS, NGA vs GA): about 5 fold; MIC [7]: 4 µg/mL (≈ 6.18 µM); MIC ([8]; BAS849, 18 h): 8 µg/mL (≈ 12.4 µM); MIC [9]: > 64 µg/mL; MIC [10]: > 64 µg/mL
